{
  "source": "PubChem BioAssay AID248",
  "about": "(DTP/NCI, 2004)",
  "system": "L1210 leukemia ip in BDF1 mice, survival T/C",
  "assay": "NCI In Vivo Anticancer Drug Screen. Data for tumor model L1210 Leukemia (intraperitoneal) in B6D2F1 (BDF1) mice",
  "conditions": "higher = longer survival",
  "outline": "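Survival endpoint. Drug-treated group vs vehicle group, expressed as T divided by C. Tumor passaged by transplantation.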",
  "note": "Values joined by “and” are separate entries in the source; they are usually repeats but may differ in a detail not shown here. Equal values may be shown once. Inconclusive results and toxic doses are left out.",
  "data": [
    {"smiles": "O=NN(CCCl)C(=O)NC1CCCCC1", "values": [
      {"measurement": "T/C", "setting": "endpoint: mean survival time, dose: 9.0 mg/kg/injection, schedule: Q01DX003 (ip), vehicle: carboxymethylcellulose (CMC)", "result": "154 % of control"},
      {"measurement": "T/C", "setting": "endpoint: mean survival time, dose: 9.3 mg/kg/injection, schedule: Q## X004 (ip), vehicle: carboxymethylcellulose (CMC)", "result": "112 % of control"},
      {"measurement": "T/C", "setting": "endpoint: mean survival time, dose: 9.37 mg/kg/injection, schedule: Q01DX001 (ip), vehicle: saline", "result": "102 % of control"},
      {"measurement": "T/C", "setting": "endpoint: mean survival time, dose: 10.0 mg/kg/injection, schedule: Q01DX001 (ip), vehicle: carboxymethylcellulose (CMC)", "result": "116 % of control"},
      {"measurement": "T/C", "setting": "endpoint: mean survival time, dose: 10.0 mg/kg/injection, schedule: Q01DX001 (iv), vehicle: clinical formulation", "result": "160 % of control"},
      {"measurement": "T/C", "setting": "endpoint: mean survival time, dose: 10.0 mg/kg/injection, schedule: Q## X032 (ip), vehicle: carboxymethylcellulose (CMC)", "result": "122 % of control"},
      {"measurement": "T/C", "setting": "endpoint: mean survival time, dose: 12.5 mg/kg/injection, schedule: Q01DX009 (ip), vehicle: Klucel (hydroxypropylcellulose) (HPC)", "result": "172 % of control"},
      {"measurement": "T/C", "setting": "endpoint: mean survival time, dose: 12.5 mg/kg/injection, schedule: Q01DX Z (ip), vehicle: carboxymethylcellulose (CMC)", "result": "156 % of control"},
      {"measurement": "T/C", "setting": "endpoint: mean survival time, dose: 12.5 mg/kg/injection, schedule: Q03HX024 (ip), vehicle: carboxymethylcellulose (CMC)", "result": "154 % of control"},
      {"measurement": "T/C", "setting": "endpoint: mean survival time, dose: 15.0 mg/kg/injection, schedule: Q01DX001 (iv), vehicle: Klucel (hydroxypropylcellulose) (HPC)", "result": "152 % of control"},
      {"measurement": "T/C", "setting": "endpoint: mean survival time, dose: 16.0 mg/kg/injection, schedule: Q01DX009 (ip), vehicle: saline with Tween-80", "result": "161 % of control"},
      {"measurement": "T/C", "setting": "endpoint: mean survival time, dose: 16.0 mg/kg/injection, schedule: Q01DX Z (ip), vehicle: carboxymethylcellulose (CMC)", "result": "158 % of control"},
      {"measurement": "T/C", "setting": "endpoint: mean survival time, dose: 16.0 mg/kg/injection, schedule: Q03HX003 (oral), vehicle: saline", "result": "161 % of control"},
      {"measurement": "T/C", "setting": "endpoint: mean survival time, dose: 18.0 mg/kg/injection, schedule: Q01DX001 (ip), vehicle: carboxymethylcellulose (CMC)", "result": "159 % of control"},
      {"measurement": "T/C", "setting": "endpoint: mean survival time, dose: 18.5 mg/kg/injection, schedule: Q01DX001 (ip), vehicle: carboxymethylcellulose (CMC)", "result": "153 % of control"},
      {"measurement": "T/C", "setting": "endpoint: mean survival time, dose: 18.75 mg/kg/injection, schedule: Q01DX001 (ip), vehicle: saline", "result": "109 % of control"},
      {"measurement": "T/C", "setting": "endpoint: mean survival time, dose: 20.0 mg/kg/injection, schedule: Q01DX001 (ip), vehicle: carboxymethylcellulose (CMC)", "result": "160 % of control"},
      {"measurement": "T/C", "setting": "endpoint: mean survival time, dose: 20.0 mg/kg/injection, schedule: Q04DX004 (ip), vehicle: Klucel (hydroxypropylcellulose) (HPC)", "result": "162 % of control"},
      {"measurement": "T/C", "setting": "endpoint: mean survival time, dose: 22.0 mg/kg/injection, schedule: Q01DX001 (ip), vehicle: carboxymethylcellulose (CMC)", "result": "156 % of control"},
      {"measurement": "T/C", "setting": "endpoint: mean survival time, dose: 22.0 mg/kg/injection, schedule: Q01DX001 (iv), vehicle: saline", "result": "165 % of control"},
      {"measurement": "T/C", "setting": "endpoint: mean survival time, dose: 25.0 mg/kg/injection, schedule: Q03HX008 (ip), vehicle: carboxymethylcellulose (CMC)", "result": "112 % of control"},
      {"measurement": "T/C", "setting": "endpoint: mean survival time, dose: 30.0 mg/kg/injection, schedule: Q01DX001 (ip), vehicle: saline", "result": "156 % of control"},
      {"measurement": "T/C", "setting": "endpoint: mean survival time, dose: 32.0 mg/kg/injection, schedule: Q01DX005 (oral), vehicle: saline", "result": "121 % of control"},
      {"measurement": "T/C", "setting": "endpoint: mean survival time, dose: 50.0 mg/kg/injection, schedule: Q01DX Z (ip), vehicle: carboxymethylcellulose (CMC)", "result": "118 % of control"},
      {"measurement": "T/C", "setting": "endpoint: mean survival time, dose: 50.0 mg/kg/injection, schedule: Q07DX Z (ip), vehicle: carboxymethylcellulose (CMC)", "result": "158 % of control"},
      {"measurement": "T/C", "setting": "endpoint: mean survival time, dose: 50.0 mg/kg/injection, schedule: Q## X004 (ip), vehicle: carboxymethylcellulose (CMC)", "result": "160 % of control"},
      {"measurement": "T/C", "setting": "endpoint: mean survival time, dose: 50.0 mg/kg/injection, schedule: Q## X015 (ip), vehicle: carboxymethylcellulose (CMC)", "result": "171 % of control"},
      {"measurement": "T/C", "setting": "endpoint: mean survival time, dose: 62.0 mg/kg/injection, schedule: Q01DX Z (ip), vehicle: carboxymethylcellulose (CMC)", "result": "92 % of control"},
      {"measurement": "T/C", "setting": "endpoint: mean survival time, dose: 75.0 mg/kg/injection, schedule: Q## X008 (ip), vehicle: carboxymethylcellulose (CMC)", "result": "163 % of control"},
      {"measurement": "T/C", "setting": "endpoint: mean survival time, dose: 97.0 mg/kg/injection, schedule: Q01DX001 (oral), vehicle: carboxymethylcellulose (CMC)", "result": "95 % of control"},
      {"measurement": "T/C", "setting": "endpoint: mean survival time, dose: 100.0 mg/kg/injection, schedule: Q01DX001 (ip), vehicle: carboxymethylcellulose (CMC)", "result": "164 % of control"},
      {"measurement": "T/C", "setting": "endpoint: mean survival time, dose: 100.0 mg/kg/injection, schedule: Q01DX001 (ip), vehicle: saline", "result": "104 % of control"},
      {"measurement": "T/C", "setting": "endpoint: mean survival time, dose: 100.0 mg/kg/injection, schedule: Q01DX001 (oral), vehicle: saline", "result": "95 % of control"},
      {"measurement": "T/C", "setting": "endpoint: mean survival time, dose: 112.0 mg/kg/injection, schedule: Q01DX001 (ip), vehicle: carboxymethylcellulose (CMC)", "result": "164 % of control"},
      {"measurement": "T/C", "setting": "endpoint: mean survival time, dose: 112.0 mg/kg/injection, schedule: Q## X001 (ip), vehicle: carboxymethylcellulose (CMC)", "result": "152 % of control"},
      {"measurement": "T/C", "setting": "endpoint: mean survival time, dose: 112.0 mg/kg/injection, schedule: Q## X008 (ip), vehicle: carboxymethylcellulose (CMC)", "result": "121 % of control"},
      {"measurement": "T/C", "setting": "endpoint: mean survival time, dose: 112.0 mg/kg/injection, schedule: Q## X015 (ip), vehicle: carboxymethylcellulose (CMC)", "result": "119 % of control"},
      {"measurement": "T/C", "setting": "endpoint: mean survival time, dose: 200.0 mg/kg/injection, schedule: Q01DX001 (ip), vehicle: Klucel (hydroxypropylcellulose) (HPC)", "result": "110 % of control"},
      {"measurement": "T/C", "setting": "endpoint: mean survival time, dose: 200.0 mg/kg/injection, schedule: Q01DX001 (ip), vehicle: carboxymethylcellulose (CMC)", "result": "104 % of control"},
      {"measurement": "T/C", "setting": "endpoint: mean survival time, dose: 200.0 mg/kg/injection, schedule: Q01DX001 (oral), vehicle: carboxymethylcellulose (CMC)", "result": "159 % of control"},
      {"measurement": "T/C", "setting": "endpoint: mean survival time, dose: 400.0 mg/kg/injection, schedule: Q01DX001 (ip), vehicle: carboxymethylcellulose (CMC)", "result": "93 % of control"},
      {"measurement": "T/C", "setting": "endpoint: median survival time, dose: 12.5 mg/kg/injection, schedule: Q01DX001 (ip), vehicle: saline with Tween-80", "result": "99 % of control and 100 % of control"},
      {"measurement": "T/C", "setting": "endpoint: median survival time, dose: 25.0 mg/kg/injection, schedule: Q01DX001 (ip), vehicle: saline with Tween-80", "result": "100 % of control and 101 % of control"},
      {"measurement": "T/C", "setting": "endpoint: median survival time, dose: 25.0 mg/kg/injection, schedule: Q01DX001 (oral), vehicle: Klucel (hydroxypropylcellulose) (HPC)", "result": "158 % of control"},
      {"measurement": "T/C", "setting": "endpoint: median survival time, dose: 50.0 mg/kg/injection, schedule: Q01DX001 (ip), vehicle: saline with Tween-80", "result": "112 % of control and 113 % of control"},
      {"measurement": "T/C", "setting": "endpoint: median survival time, dose: 200.0 mg/kg/injection, schedule: Q01DX001 (ip), vehicle: saline with Tween-80", "result": "112 % of control and 113 % of control"}
    ]}
  ]
}
